# Measured values reported in PubChem BioAssay AID1963426 (Molecular Pharmacology Branch, DTP, NCI, 2024).
# Where “and” joins values, the source holds several entries; their conditions need not be identical. Identical values can stand only once.
# System: 186277-243-T-J2-PDC complex spheroid growth, % test/control
# Assay: Anticancer human tumor 186277-243-T-J2-PDC patient-derived colon adenocarcinoma cell line growth inhibition [Asc]
# Details: for viability, T/C: stronger effect = lower value
# Protocol: Multicellular complex tumor spheroid response to apoptosis pathway targeting inhibitors Alrizomadlin, Pelcitoclax, and Dasminapant in combination with a variety of drugs and investigational agents in selected tumor cell lines
# The MDM2 inhibitor alrizomadlin, the Bcl-2/Bcl-xL inhibitor pelcitoclax, and the IAPs inhibitor dasminapant were evaluated both individually and in combination with standard of care and investigational anticancer small molecules within a complex spheroid model of solid tumors. . Complex spheroids include a stromal component modeled by human endothelial cells (HUVEC) and fibroblasts modeled by human mesenchymal stem cells (MSCs). The concentration ranges selected for each drug and investigational agent were based upon clinically achievable concentrations if the clinical Cmax of the agent was known.
# Compounds. The drugs and investigational agents: alrizomadlin (APG-115; NSC831270), pelcitoclax (APG-1252; NSC835773), dasminapant (APG-1387;NSC834197), TAK-243 (NSC785004), copanlisib (NSC809693), olaparib (NSC753686), talazoparib (NSC767125), cobimetinib (NSC 768068), eltanexor (KPT-8602, NSC 794443), abemaciclib (NSC 768073), sotorasib (NSC818433), adagrasib (NSC 831453), MRTX-1133 (NSC 836407), Iadademestat (ORY1001, NSC 806812), and RMC-4630 (NSC839698), were obtained from the NCI Developmental Therapeutics Program Chemical Repository. The FDA-approved anticancer drug set is available from the Developmental Therapeutics Program at https://dtp.cancer.gov/organization/dscb/obtaining/available plates.htm. […] The stock solutions were prepared in dimethyl sulfoxide (DMSO, Sigma-Aldrich, St. Louis, MO, cat. D2650) at 800-fold the tested concentration and stored at -70 degrees C prior to their use. All drugs and investigational agents were tested over a range starting from a high concentration at or near the clinical Cmax and decreasing in half-log increments. If the clinical Cmax for an agent had not been determined, the highest concentration tested was 10 microM.
# The patient-derived cancer (PDC) cell lines include five colon adenocarcinomas: 186277-243-T-J2-PDC, 616215-338-R-J1-PDC, 439559-082-T-J2-PDC, 463943-066-T-J2-PDC, and 519858-162-T-J1-PDC; three pancreatic carcinomas: 323965-272-R-J2-PDC, 521955-158-R6-J3-PDC, and 521955-158-R2-J5-PDC; two uterine sarcomas: 327498-152-R-J2-PDC and 993429-296-R-J1-PDC; two rhabdomyosarcomas: 755483-174-R-J1-PDC and 772245-204-R-J1-PDC; two soft tissue sarcomas: 126254-015-R-J1-PDC and 494315-158-R-J1-PDC; two malignant fibrous histiocytomas: 317291-083-R-J1-PDC and 596521-263-R-J1-PDC; two breast carcinomas: 171881-019-R-J1-PDC and 885512-296-R-J2-PDC; and one ovarian carcinoma: 6556581-035-R-J-PDC were obtained from the NCI PDMR, (https://pdmr.cancer.gov). The established cell lines HSSY-2 synovial sarcoma (RRID:CVCL 8719), SYO-1 synovial sarcoma (RRID:CVCL_7146), MPNST malignant peripheral neural sheath tumor were obtained from the Sloan Kettering Institute. The following established cell lines were purchased from the American Type Culture Collection (ATCC, Manassas, VA), Sor the received from the NCI repository:, PANC-1 pancreatic carcinoma (CRL-1469, RRID:CVCL_0480), OVCAR-5 ovarian carcinoma (RRID:CVCL_1628), OVCAR-8 ovarian carcinoma (RRID:CVCL_1629), , MCF-7 breast carcinoma (CRL-12584, RRID:CVCL_0031), MDA-MB-231 breast carcinoma (CRL-12532, RRID:CVCL_0062), NCI-H1876 small cell lung carcinoma (CRL-5902, RRID:CVCL_1503), NCI-H510A small cell lung carcinoma (HTB-184, RRID:CVCL_1565), NCI-H1417 (CRL-5869, RRID:CVCL_1469), and NCI-H196 small cell lung carcinoma (CRL-5823, RRID:CVCL_1509). Dr. Peter Houghton (Greehey Children's Cancer Research Institute, University of Texas Health Science Center, San Antonio, TX) provided Rh-18 rhabdomyosarcoma (RRID:CVCL_1659). Pooled donor human umbilical vein endothelial cells (HUVEC, Lonza, cat. CC-2519) and human mesenchymal stem cells (hMSC, Lonza, cat. PT-2501) were purchased from Lonza (Walkersville, MD).
# Cell Culture. […]
# [1] = curve of first compound, second compound 0.03 µM
# [2] = curve of first compound, second compound 0.0949 µM
# [3] = curve of first compound, second compound 0.3 µM
# [4] = curve of first compound, second compound 0.949 µM
# [5] = curve of first compound, second compound 3 µM
# [6] = second compound 0.03 µM, first compound 0.00316 µM
# [7] = second compound 0.03 µM, first compound 0.01 µM
# [8] = second compound 0.03 µM, first compound 0.0316 µM
# [9] = second compound 0.03 µM, first compound 0.1 µM
# [10] = second compound 0.03 µM, first compound 0.316 µM
# [11] = second compound 0.03 µM, first compound 1 µM
# [12] = second compound 0.0949 µM, first compound 0.00316 µM
# [13] = second compound 0.0949 µM, first compound 0.01 µM
# [14] = second compound 0.0949 µM, first compound 0.0316 µM
# [15] = second compound 0.0949 µM, first compound 0.1 µM
# [16] = second compound 0.0949 µM, first compound 0.316 µM
# [17] = second compound 0.0949 µM, first compound 1 µM
# [18] = second compound 0.3 µM, first compound 0.00316 µM
# [19] = second compound 0.3 µM, first compound 0.01 µM
# [20] = second compound 0.3 µM, first compound 0.0316 µM
# [21] = second compound 0.3 µM, first compound 0.1 µM
# [22] = second compound 0.3 µM, first compound 0.316 µM
# [23] = second compound 0.3 µM, first compound 1 µM
# [24] = second compound 0.949 µM, first compound 0.00316 µM
# [25] = second compound 0.949 µM, first compound 0.01 µM
# [26] = second compound 0.949 µM, first compound 0.0316 µM
# [27] = second compound 0.949 µM, first compound 0.1 µM
# [28] = second compound 0.949 µM, first compound 0.316 µM
# [29] = second compound 0.949 µM, first compound 1 µM
# [30] = second compound 3 µM, first compound 0.00316 µM
# [31] = second compound 3 µM, first compound 0.01 µM
# [32] = second compound 3 µM, first compound 0.0316 µM
# [33] = second compound 3 µM, first compound 0.1 µM
# [34] = second compound 3 µM, first compound 0.316 µM
# [35] = second compound 3 µM, first compound 1 µM
# 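Note: spheroids exposed to agents for 7 days.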
# 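Throughout, for viability, T/C: 100% = DMSO vehicle control wells.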
compound,measurement,setting,value
COc1c(OCCCN2CCOCC2)ccc2c3n(c(=NC(=O)c4cnc(N)nc4)nc12)CCN3 + CCN1C(C(=O)NC23CCC(C(=O)O)(CC2)CC3)C(c2cccc(Cl)c2F)C2(C(=O)Nc3cc(Cl)ccc32)C12CCCCC2,IC50,[1],25.8 nM
same,IC50,[2],18.9 nM
same,IC50,[3],12.9 nM
same,IC50,[4],< 3.16 nM
same,IC50,[5],< 3.16 nM
same,"viability, T/C",[6],101%
same,"viability, T/C",[7],75.2%
same,"viability, T/C",[8],46.7%
same,"viability, T/C",[9],18.1%
same,"viability, T/C",[10],9.99%
same,"viability, T/C",[11],6.65%
same,"viability, T/C",[12],67.3%
same,"viability, T/C",[13],64%
same,"viability, T/C",[14],38.8%
same,"viability, T/C",[15],9.15%
same,"viability, T/C",[16],4.16%
same,"viability, T/C",[17],2.21%
same,"viability, T/C",[18],58.1%
same,"viability, T/C",[19],58.4%
same,"viability, T/C",[20],21.4%
same,"viability, T/C",[21],2.26%
same,"viability, T/C",[22],1.06%
same,"viability, T/C",[23],0.54%
same,"viability, T/C",[24],49.5%
same,"viability, T/C",[25],40.1%
same,"viability, T/C",[26],9.96%
same,"viability, T/C",[27],0.92%
same,"viability, T/C",[28],0.3%
same,"viability, T/C",[29],0.28%
same,"viability, T/C",[30],30.3%
same,"viability, T/C",[31],24.8%
same,"viability, T/C",[32],5.08%
same,"viability, T/C",[33],0.52%
same,"viability, T/C",[34],0.33%
same,"viability, T/C",[35],0.31%
CCN1CCN(Cc2ccc(Nc3ncc(F)c(-c4cc(F)c5nc(C)n(C(C)C)c5c4)n3)nc2)CC1,"viability, T/C",compound 0.00316 µM,102% and 90.6% and 91.4%
same,"viability, T/C",compound 0.01 µM,88% and 106% and 84.1%
same,"viability, T/C",compound 0.0316 µM,116% and 109% and 93.2%
same,"viability, T/C",compound 0.1 µM,116% and 108% and 112%
same,"viability, T/C",compound 0.316 µM,99.9% and 99.1% and 127%
same,"viability, T/C",compound 1 µM,97.2% and 98.6% and 123%
same,IC50,curve of compound,> 1000 nM
CCN1CCN(Cc2ccc(Nc3ncc(F)c(-c4cc(F)c5nc(C)n(C(C)C)c5c4)n3)nc2)CC1 + CCN1C(C(=O)NC23CCC(C(=O)O)(CC2)CC3)C(c2cccc(Cl)c2F)C2(C(=O)Nc3cc(Cl)ccc32)C12CCCCC2,IC50,[1],> 1000 nM
same,IC50,[2],> 1000 nM
same,IC50,[3],704 nM
same,IC50,[4],24.6 nM
same,IC50,[5],< 3.16 nM
same,"viability, T/C",[6],114%
same,"viability, T/C",[7],130%
same,"viability, T/C",[8],112%
same,"viability, T/C",[9],97%
same,"viability, T/C",[10],99.6%
same,"viability, T/C",[11],85.2%
same,"viability, T/C",[12],107%
same,"viability, T/C",[13],99.8%
same,"viability, T/C",[14],89.4%
same,"viability, T/C",[15],75%
same,"viability, T/C",[16],82.3%
same,"viability, T/C",[17],64.7%
same,"viability, T/C",[18],68.1%
same,"viability, T/C",[19],74.7%
same,"viability, T/C",[20],65.8%
same,"viability, T/C",[21],61.6%
same,"viability, T/C",[22],64.2%
same,"viability, T/C",[23],44.6%
same,"viability, T/C",[24],49.7%
same,"viability, T/C",[25],52.6%
same,"viability, T/C",[26],50.4%
same,"viability, T/C",[27],44.3%
same,"viability, T/C",[28],39.5%
same,"viability, T/C",[29],34.7%
same,"viability, T/C",[30],29.1%
same,"viability, T/C",[31],31.5%
same,"viability, T/C",[32],26.8%
same,"viability, T/C",[33],25.7%
same,"viability, T/C",[34],23.2%
same,"viability, T/C",[35],24.6%
